From ChEMBL document CHEMBL1201862, “PubChem BioAssay data set” (2004)
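96-well plates; 48 h exposure; 5 concentrations. Endpoints by linear interpolation between flanking doses. Not reached: highest tested concentration assigned. GI50 = concentration required for 50% inhibition of growth.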 Activity calls are given as the source filed them. No stated cut-off is given here; in the data, active = GI50 up to about 1.1 µM and inactive = higher.

Tests used:
Test in all cases: inhibition of tumour cell growth, NCI panel, 48 h
786-0 = system: 786-0
A498 = system: A498
CAKI-1 = system: CAKI-1
HCT-116 = system: HCT-116
HOP-92 = system: HOP-92
Hs-578T = system: Hs-578T
MCF7 = system: MCF7
MOLT-4 = system: MOLT-4
NCI-H226 = system: NCI-H226
NCI-H23 = system: NCI-H23
NCI-H522 = system: NCI-H522
PC-3 = system: PC-3
RPMI-8226 = system: RPMI-8226
SR = system: SR
SW-620 = system: SW-620
TK-10 = system: TK-10
U-251 = system: U-251
UACC-62 = system: UACC-62
UO-31 = system: UO-31

Row | SMILES | GI50 (786-0) | GI50 (A498) | GI50 (CAKI-1) | GI50 (HCT-116) | GI50 (HOP-92) | GI50 (Hs-578T) | GI50 (MCF7) | GI50 (MOLT-4) | GI50 (NCI-H226) | GI50 (NCI-H23) | GI50 (NCI-H522) | GI50 (PC-3) | GI50 (RPMI-8226) | GI50 (SR) | GI50 (SW-620) | GI50 (TK-10) | GI50 (U-251) | GI50 (UACC-62) | GI50 (UO-31)
1 | CC(=O)C1=C(C)N(c2ccccc2)C2(O)C=CC(O)=C3C(=O)c4ccccc4C(=O)C312 (stereo unspecified) | 20 µM (inactive) | 23 µM (inactive) | 14.3 µM (inactive) | 8.15 µM (inactive) | 25.6 µM (inactive) | 41.7 µM (inactive) | 22.3 µM (inactive) | 8.28 µM (inactive) | 25.5 µM (inactive) | 15.8 µM (inactive) | 16.3 µM (inactive) | 17.8 µM (inactive) | 3.37 µM (inactive) | 8.55 µM (inactive) | 7.64 µM (inactive) | 24.7 µM (inactive) | 18 µM (inactive) | 15.6 µM (inactive) | 16.3 µM (inactive)
2 | COc1cc(NS(C)(=O)=O)ccc1NCc1c[nH]c2ccc3ncccc3c12 | 15.6 µM (inactive) | 23.1 µM (inactive) | 22.4 µM (inactive) | 21.2 µM (inactive) | 33 µM (inactive) | 19.7 µM (inactive) | 19.4 µM (inactive) | 5.83 µM (inactive) | 12.3 µM (inactive) | 20.4 µM (inactive) | 14.2 µM (inactive) | 19.4 µM (inactive) | 11.3 µM (inactive) | 2.75 µM (inactive) | 26.1 µM (inactive) | 28 µM (inactive) | 27.5 µM (inactive) | 17.3 µM (inactive) | 26.4 µM (inactive)
3 | COc1nc(OC)nc(-c2cccc(F)c2)n1 | 19 µM (inactive) | 19.1 µM (inactive) | < 0.01 µM (active) | 16.7 µM (inactive) | 6.41 µM (inactive) | 32.1 µM (inactive) | 15.9 µM (inactive) | 4.99 µM (inactive) | 13.4 µM (inactive) | 12 µM (inactive) | 18.7 µM (inactive) | 19.3 µM (inactive) | 10.8 µM (inactive) | 2.2 µM (inactive) | 17.7 µM (inactive) | 18.3 µM (inactive) | 15.7 µM (inactive) | 8.51 µM (inactive) | 16.6 µM (inactive)
4 | Clc1ccc(Cn2cc(/C=N/n3cnnc3)c3ccccc32)cc1 | 57.9 µM (inactive) | 1.49 µM (inactive) | 21.5 µM (inactive) | 31.8 µM (inactive) | 14.6 µM (inactive) | 37.1 µM (inactive) | 28.4 µM (inactive) | 63.8 µM (inactive) | 1.1 µM (active) | 29.3 µM (inactive) | 23.2 µM (inactive) | 52.1 µM (inactive) | 28.1 µM (inactive) | 39.9 µM (inactive) | > 100 µM (inactive) | 4.81 µM (inactive) | 37.8 µM (inactive) | 29 µM (inactive) | 30.5 µM (inactive)
5 | C1=CN2C[n+]3cccc(OCc4ccccc4)c3N=C2C(OCc2ccccc2)=C1 | 15.3 µM (inactive) | 85.9 µM (inactive) | 22 µM (inactive) | 23.3 µM (inactive) | 12.5 µM (inactive) | 2.36 µM (inactive) | 13.5 µM (inactive) |  | 29.4 µM (inactive) | 10.3 µM (inactive) | 2.65 µM (inactive) | 26.5 µM (inactive) | 2.84 µM (inactive) |  | 11.9 µM (inactive) | 56 µM (inactive) | 4.51 µM (inactive) | 11.9 µM (inactive) | > 100 µM (inactive)
6 | COc1ccc(N2C(=O)C3ON(C(C(N)=O)c4ccccc4)C(c4ccc(-c5ccccc5)cc4)C3C2=O)cc1 (stereo unspecified) | > 50 µM (inactive) | > 50 µM (inactive) | > 50 µM (inactive) | > 50 µM (inactive) |  | > 50 µM (inactive) | 31.3 µM (inactive) | > 50 µM (inactive) | > 50 µM (inactive) | > 50 µM (inactive) | 48.3 µM (inactive) | > 50 µM (inactive) | 16.8 µM (inactive) | > 50 µM (inactive) | > 50 µM (inactive) | > 50 µM (inactive) | > 50 µM (inactive) | > 50 µM (inactive) | > 50 µM (inactive)
